Results as given in patent US12156880B2, “Heterocyclic RIP1 kinase inhibitors” (Rigel Pharmaceuticals, Inc., priority 2021, dated 2024).

Key:
RIPK1 = biological target: T1, RIPK1 (Homo sapiens, UniProt Q13546); test: RIPK1 ADP-Glo biochemical kinase assay; conditions: read-out: RIPK1 ADP-Glo Kinase (IC50)
T1 sequence (Q13546 1-671): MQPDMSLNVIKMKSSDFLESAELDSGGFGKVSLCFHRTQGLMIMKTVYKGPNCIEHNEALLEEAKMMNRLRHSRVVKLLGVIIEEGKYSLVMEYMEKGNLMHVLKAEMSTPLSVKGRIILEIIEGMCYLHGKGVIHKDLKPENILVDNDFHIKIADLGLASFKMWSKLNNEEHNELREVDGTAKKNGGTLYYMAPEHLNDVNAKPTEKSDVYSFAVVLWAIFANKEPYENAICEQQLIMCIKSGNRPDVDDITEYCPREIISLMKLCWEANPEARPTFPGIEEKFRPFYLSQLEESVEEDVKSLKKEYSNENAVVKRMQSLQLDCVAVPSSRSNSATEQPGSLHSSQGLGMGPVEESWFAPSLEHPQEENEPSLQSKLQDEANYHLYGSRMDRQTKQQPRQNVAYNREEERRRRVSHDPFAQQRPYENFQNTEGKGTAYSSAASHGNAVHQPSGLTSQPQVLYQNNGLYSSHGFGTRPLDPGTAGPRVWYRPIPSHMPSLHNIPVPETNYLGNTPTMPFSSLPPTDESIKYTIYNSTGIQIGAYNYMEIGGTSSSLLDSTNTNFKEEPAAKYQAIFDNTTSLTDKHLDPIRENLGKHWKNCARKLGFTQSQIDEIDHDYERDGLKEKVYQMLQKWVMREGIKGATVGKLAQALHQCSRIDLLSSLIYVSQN
Experimental: In this example, compounds of the disclosure were evaluated using a biochemical assay using the ADP-Glo™ technology.
ADP-Glo™ (Promega, Madison, WI, USA) reagents were thawed at ambient temperature. Kinase Detection Reagent was prepared by mixing kinase detection buffer with the lyophilized kinase detection substrate.
A […] stock volume of 5× Reaction Kinase Buffer was made by mixing 1000 μl of 1M MgCl2, 500 μl of 1M Tris-HCL pH7.4, 0.5 mg/ml (25 mg) of BSA, and 3475 μl of distilled H2O. A 3 ml 2× working stock volume of Reaction Kinase Buffer was made containing a final concentration of 100 μM DTT and 4 mM MnCl2.
Components of RIPK1 enzyme (Rigel Pharmaceuticals, South San Francisco, CA, USA) were thawed on ice. Diluted RIPK1 was prepared in 1× Kinase Reaction Buffer (diluted from 2× buffer) to 31 ng/well.
1.0 ul of diluted compound was added to a 384 well plate in duplicate. […] The final reaction volume was 5.0 μl.
The plate was quickly centrifuged and the reaction was incubated at 30° C. for 30 minutes. Adding 5 μl of ADP-Glo™ terminated the reaction. The plate was quickly centrifuged and the reaction was incubated at room temperature for 40 minutes. Kinase Detection Reagent was then added and incubated at room temperature for 30 minutes. The relative light unit (RLU) of kinase reaction was determined by luminescent (Luminescence 0.1 s) using a Wallac Victor2 Luminometer (PerkinElmer, Waltham, MA, USA).

U937 cells = test: U937 cell necroptosis assay (TNFa + zVAD, CellTiter-Glo recovery); assay type: cell-based; conditions: Homo sapiens, U-937, 18 h, TNFa 2 ng/mL + zVAD-fmk, read-out: U937 Zvad TNF CTG Recovery, U937, TNFa + zVAD (IC50)
Experimental: In this example, U937 and L929 cells were exposed to compounds of the present disclosure and a cell necroptosis assay was conducted to evaluate the compounds' activity against human RIP1 and murine RIP1.
U937 and L929 cells were obtained from the American Type Culture Collection (Manassas, VA, USA). Both cells were maintained in logarithmic growth phase in complete RPMI 1640 media (Sigma, ST Louis, MO, USA) supplemented with 10% fetal bovine serum (Sigma, ST Louis, MO, USA) at 37° C. with 5% CO2. For necroptosis assay, L929 cells were plated for 18 h in 100 μL/well medium at 10K cells/well in Costar 96-well black clear-bottom plates (Fisher Scientific, Hampton, NH, USA); U937 cells were plated on the day of the assay in 50 μL/well medium containing 60 uM zVAD-fmk (Lonza, Basel, Switzerland) at 50K cells/well. Medium from L929 cells were removed from the 96-well plates and replaced with 50 μL/well new medium containing 40 uM zVAD-fmk. Each compound of the present disclosure evaluated in this example was serially diluted in DMSO from 2.5 mM in 4-fold dilutions, and then diluted 1:125 in complete medium. 50 μL/well 2× of the compound was then added to the cells in the plates. The cells were pre-incubated with the compound for 1 hour at 37° C. with 5% CO2 and before addition of 10 μL/well 11×TNFa (Peprotech, Rocky Hill, NJ, USA) to give a final concentration of 2 ng/mL for TNFa. The relative amount of necroptosis cells was determined by luminescent using a Wallac Victor2 Luminometer (PerkinElmer, Waltham, MA, USA) and a CellTiter-Glo® Luminescent Cell Viability Reagent Assay (Promega, Madison, WI, USA) added per manufacturer instructions after 18 hours of TNFa stimulation at 37° C. with 5% CO2. This example establishes that embodiments of the compounds described herein have unexpectedly potent activity against human RIP1 and murine RIP1, which allows their assessment in in vivo mouse models of disease.

Row | SMILES | IC50 (RIPK1) [nM] | IC50 (U937 cells) [nM]
1 | CN1C(=O)[C@@H](NC(=O)n2cc(Cc3ccc(F)nc3F)cn2)COc2ccc(Br)cc21 [I-49, (S)—N-(7-Bromo-5-methyl-4-oxo-2,3,4,5-tetrahydrobenzo[b][1,4]oxazepin-3-yl)-4-((2,6-difluoropyridin-3-yl)methyl)-1H-pyrazole-1-carboxamide] | 207 | 170
2 | Cc1cccc(Cc2cnn(C(=O)N[C@H]3COc4ccc(Br)cc4N(C)C3=O)c2)n1 [I-19, (S)—N-(7-Bromo-5-methyl-4-oxo-2,3,4,5-tetrahydrobenzo[b][1,4]oxazepin-3-yl)-4-((6-methylpyridin-2-yl)methyl)-1H-pyrazole-1-carboxamide] |  | 264
3 | CN1C(=O)[C@@H](NC(=O)n2cc(Oc3cccc(F)n3)cn2)COc2ccc(Br)cc21 [I-110, (S)—N-(7-Bromo-5-methyl-4-oxo-2,3,4,5-tetrahydrobenzo[b][1,4]oxazepin-3-yl)-4-((6-fluoropyridin-2-yl)oxy)-1H-pyrazole-1-carboxamide] | 6470 | 9070
4 | CN1C(=O)[C@@H](NC(=O)n2cc(Oc3cccc(F)n3)cn2)COc2ccc(C#CC(C)(C)O)cc21 [I-112, (S)-4-((6-Fluoropyridin-2-yl)oxy)-N-(7-(3-hydroxy-3-methylbut-1-yn-1-yl)-5-methyl-4-oxo-2,3,4,5-tetrahydrobenzo[b][1,4]oxazepin-3-yl)-1H-pyrazole-1-carboxamide] | 80.4 | 1850
5 | Cc1noc(C)c1Cc1ccnc(C(=O)N[C@H]2COc3ccc(C#CC4(O)COC4)cc3N(C)C2=O)c1 [I-69, (S)-4-((3,5-dimethylisoxazol-4-yl)methyl)-N-(7-((3-hydroxyoxetan-3-yl)ethynyl)-5-methyl-4-oxo-2,3,4,5-tetrahydrobenzo[b][1,4]oxazepin-3-yl)picolinamide] | 326 | 2830
6 | CN1C(=O)[C@@H](NC(=O)c2cc(Oc3ccc(C(F)(F)F)nc3)ccn2)COc2ccc(C#CC3(O)COC3)cc21 [I-81, (S)—N-(7-((3-hydroxyoxetan-3-yl)ethynyl)-5-methyl-4-oxo-2,3,4,5-tetrahydrobenzo[b][1,4]oxazepin-3-yl)-4-((6-(trifluoromethyl)pyridin-3-yl)oxy)picolinamide] | 392 | 5290
7 | CN1C(=O)[C@@H](NC(=O)n2cc(Cc3cccnn3)cn2)COc2ccc(Br)cc21 [I-25, (S)—N-(7-Bromo-5-methyl-4-oxo-2,3,4,5-tetrahydrobenzo[b][1,4]oxazepin-3-yl)-4-(pyridazin-3-ylmethyl)-1H-pyrazole-1-carboxamide] |  | 4120
8 | CN1C(=O)[C@@H](NC(=O)c2cc(Oc3ccccn3)ccn2)COc2ccc(C#CC3(O)COC3)cc21 [I-129, (S)—N-(7-((3-hydroxyoxetan-3-yl)ethynyl)-5-methyl-4-oxo-2,3,4,5-tetrahydrobenzo[b][1,4]oxazepin-3-yl)-4-(pyridin-2-yloxy)picolinamide] | 2280 | 1200
9 | CN1C(=O)[C@@H](NC(=O)n2cc(Cc3ccc(F)nc3)cn2)COc2ccc(Br)cc21 [I-24, (S)—N-(7-Bromo-5-methyl-4-oxo-2,3,4,5-tetrahydrobenzo[b][1,4]oxazepin-3-yl)-4-((6-fluoropyridin-3-yl)methyl)-1H-pyrazole-1-carboxamide] |  | 69.8
10 | CN1C(=O)[C@@H](NC(=O)c2cc(O)ccn2)COc2ccc(C#CC(C)(C)O)cc21 [I-86, (S)-4-hydroxy-N-(7-(3-hydroxy-3-methylbut-1-yn-1-yl)-5-methyl-4-oxo-2,3,4,5-tetrahydrobenzo[b][1,4]oxazepin-3-yl)picolinamide] |  | 59600
11 | CN1C(=O)[C@@H](NC(=O)n2cc(Cc3ccccn3)cn2)COc2ccc(C#CC(C)(C)O)cc21 [I-8, (S)—N-(7-(3-Hydroxy-3-methylbut-1-yn-1-yl)-5-methyl-4-oxo-2,3,4,5-tetrahydrobenzo[b][1,4]oxazepin-3-yl)-4-(pyridin-2-ylmethyl)-1H-pyrazole-1-carboxamide] | 26.4 | 
12 | Cc1noc(C)c1Cc1ccnc(C(=O)N[C@H]2COc3ccc(C#CC(C)(C)O)cc3N(C)C2=O)c1 [I-68, (S)-4-((3,5-dimethylisoxazol-4-yl)methyl)-N-(7-(3-hydroxy-3-methylbut-1-yn-1-yl)-5-methyl-4-oxo-2,3,4,5-tetrahydrobenzo[b][1,4]oxazepin-3-yl)picolinamide] | 467 | 7160
13 | CN1C(=O)[C@@H](NC(=O)c2cc(Oc3ccccn3)ccn2)COc2ccc(C#CC(C)(C)O)cc21 [I-128, (S)—N-(7-(3-hydroxy-3-methylbut-1-yn-1-yl)-5-methyl-4-oxo-2,3,4,5-tetrahydrobenzo[b][1,4]oxazepin-3-yl)-4-(pyridin-2-yloxy)picolinamide] | 2150 | 199000
14 | CN1C(=O)[C@@H](NC(=O)n2cc(Cc3cccnn3)cn2)COc2ccc(C#CC(C)(C)O)cc21 [I-17, (S)—N-(7-(3-Hydroxy-3-methylbut-1-yn-1-yl)-5-methyl-4-oxo-2,3,4,5-tetrahydrobenzo[b][1,4]oxazepin-3-yl)-4-(pyridazin-3-ylmethyl)-1H-pyrazole-1-carboxamide] | 111 | 715
15 | CN1C(=O)[C@@H](NC(=O)n2cc(Cc3ncccn3)cn2)COc2ccc(Br)cc21 [I-30, (S)—N-(7-Bromo-5-methyl-4-oxo-2,3,4,5-tetrahydrobenzo[b][1,4]oxazepin-3-yl)-4-(pyrimidin-2-ylmethyl)-1H-pyrazole-1-carboxamide] | 480 | 7210
16 | CN1C(=O)[C@@H](NC(=O)c2cc(Cc3cccc(O)n3)ccn2)COc2ccc(C#CC3(O)COC3)cc21 [I-10, (S)—N-(7-((3-hydroxyoxetan-3-yl)ethynyl)-5-methyl-4-oxo-2,3,4,5-tetrahydrobenzo[b][1,4]oxazepin-3-yl)-4-((6-hydroxypyridin-2-yl)methyl)picolinamide] | 304 | 2830
17 | CN1C(=O)[C@@H](NC(=O)c2cc(O)ccn2)COc2ccc(C#CC3(O)COC3)cc21 [I-89, (S)-4-hydroxy-N-(7-((3-hydroxyoxetan-3-yl)ethynyl)-5-methyl-4-oxo-2,3,4,5-tetrahydrobenzo[b][1,4]oxazepin-3-yl)picolinamide] |  | 28200
18 | CN1C(=O)[C@@H](NC(=O)c2cc(Oc3ccc(C(F)(F)F)nc3)ccn2)COc2ccc(C#CC(C)(C)O)cc21 [I-80, (S)—N-(7-(3-hydroxy-3-methylbut-1-yn-1-yl)-5-methyl-4-oxo-2,3,4,5-tetrahydrobenzo[b][1,4]oxazepin-3-yl)-4-((6-(trifluoromethyl)pyridin-3-yl)oxy)picolinamide] | 4530 | 7310
